# Laboratory results from PMC9763333, “In vitro characterization of immune modulating drug-eluting immunobeads towards transarterial embolization in cancer” (Scientific Reports, 2022).
# Where “and” joins values, the source holds several entries; their conditions need not be identical. Identical values can stand only once. Entries after “also recorded” stand apart in the source; their conditions may differ.
# Legend:
# Format in all cases: physicochemical
# [1] = Drug solubilization by salt formation in acid; details: T in °C in parentheses in the cell (20.1 or 21.1)
# Experimental: The base form of each drug was suspended in deionized water and titrated with 0.1 N hydrochloric acid (Fisher Scientific, Hampton, NH) while stirring until all the base was solubilized and the volume adjusted to a final concentration of 2.5 mg/mL. The resulting solution was frozen, then lyophilized to yield solid drug-hydrochloride salt or used in its solubilized form for loading into DC Bead LUMI. […] Doxorubicin.HCl was readily solubilized and used without modification. […] A ZORBAX Eclipse Plus C8 reversed-phase column (Agilent) and UV detector at wavelength of 230 nm were used for GS-9620 analysis. The decomposition product of GS-9620 was analyzed with reversed phase high-performance liquid chromatography (Rp-HPLC) and LC/MS.
# [2] = Drug loading into DC Bead LUMI
# Experimental: DC Bead LUMI was analyzed for its elemental composition by MEDAC Inc. […] Drug loading was performed in triplicate as previously reported[45] with slight modifications. […] Washing of beads is often a critical step in drug release studies as any drug left unbound to the beads affects the release profile and exaggerates the early burst release. […] However, washing was discontinued for TLR drugs as drug was continually observed even after multiple washes. […] The amount of drug loaded at the specified time points was calculated by subtracting the amount of drug remaining from the initial amount of drug in the loading solution and the cumulative amount of drug withdrawn for sampling. The maximum drug loaded in the beads was calculated once no further change in the concentration in the loading solution could be measured and before washing the beads. The relative percent drug loaded was defined as the maximum amount of drug loaded as a percent of the amount of SO3^- ions available in the beads on a molar basis using the following formula and the results are presented as the mean ± SD.
# [3] = Drug release from DC Bead LUMI in saline; details: for release in saline from DC Bead LUMI after multiple washes in deionized water: single replicates
# Experimental: […] Briefly, drug-loaded DC Bead LUMI or LC Bead (62.5 µL) were placed in vessels with 50 mL of saline ([…], pH 7.4) and were agitated with upright rocking motion at a set maximum rocking speed of 10 (70 rpm) for 144 h at 37 °C using Ward's® Rotating Mixer. At scheduled time intervals identical to the loading time points, 1 mL of release media was withdrawn and used for drug quantification. To maintain 50 mL total elution volume, 1 mL of fresh saline pre heated to 37 °C was replaced at each timepoint. […] 2.4. The cumulative amount of drug released at each time point was calculated by multiplying the concentration of each sample aliquot by the total volume (50 mL) of release media and adding the sum of the amount of drug removed for sampling at prior time points. […] The 50 mL volume was chosen to ensure infinite sink conditions where the maximum possible concentration of eluted drug would be at least 10 times more dilute than the maximum solubility. This ensures the rate of release is not affected by solution concentration but is only a function of interactions of the bead, drug, and saline.
# [4] = Washing of drug-loaded beads with deionized water and microscopic appearance
# Experimental: Drug loading was performed in triplicate as previously reported[45] with slight modifications. […] Washing of beads is often a critical step in drug release studies as any drug left unbound to the beads affects the release profile and exaggerates the early burst release. […] However, washing was discontinued for TLR drugs as drug was continually observed even after multiple washes. […] The amount of drug loaded at the specified time points was calculated by subtracting the amount of drug remaining from the initial amount of drug in the loading solution and the cumulative amount of drug withdrawn for sampling. The maximum drug loaded in the beads was calculated once no further change in the concentration in the loading solution could be measured and before washing the beads. The relative percent drug loaded was defined as the maximum amount of drug loaded as a percent of the amount of SO3^- ions available in the beads on a molar basis using the following formula and the results are presented as the mean ± SD.
structure (smiles),measurement,setting,value
"CC(C)Cn1cnc2c(N)nc3ccccc3c21 [IMQ, imiquimod]",pH at which each drug dissolved for loading,[1],2.06 (20.1)
same,Relative percent drug loaded in DC Bead LUMI over time,"[2]; 5 min, single replicates",27.7169% and 54.7567% and 47.2582%
same,Relative percent drug loaded in DC Bead LUMI over time,"[2]; 15 min, single replicates",44.3244% and 64.1912% and 77.4846%
same,Relative percent drug loaded in DC Bead LUMI over time,"[2]; 30 min, single replicates",53.7652% and 98.7583% and 64.7248%
same,Relative percent drug loaded in DC Bead LUMI over time,"[2]; 45 min, single replicates",63.5604% and 86.8486% and 80.4348%
same,Relative percent drug loaded in DC Bead LUMI over time,"[2]; 60 min, single replicates",62.6391% and 89.327% and 89.6722%
same,Relative percent drug loaded in DC Bead LUMI over time,"[2]; 120 min, single replicates",76.6569% and 94.7702% and 91.6603%
same,Relative percent drug loaded in DC Bead LUMI over time,"[2]; 180 min, single replicates",84.3868% and 95.4708% and 91.4628%
same,Relative percent drug loaded in DC Bead LUMI over time,"[2]; 240 min, single replicates",88.4335% and 96.0638% and 91.7809%
same,Relative percent drug loaded in DC Bead LUMI over time,"[2]; 300 min, single replicates",89.1562% and 94.7965% and 91.1063%
same,Relative percent drug loaded in DC Bead LUMI over time,"[2]; 360 min, single replicates",89.8821% and 93.7278% and 90.6691%
same,Relative percent drug loaded in DC Bead LUMI over time,"[2]; 420 min, single replicates",89.552% and 95.0881% and 90.3963%
same,Relative percent drug loaded in DC Bead LUMI over time,"[2]; 480 min, single replicates",88.9036% and 95.9382% and 95.3273%
same,Relative percent drug loaded in DC Bead LUMI over time,"[2]; 1440 min, single replicates",88.6238% and 94.7298% and 89.6159%
same,Relative percent drug loaded in DC Bead LUMI over time,"[2]; 2880 min, single replicates",89.5863% and 97.1979% and 88.3669%
same,Relative percent drug loaded in DC Bead LUMI over time,"[2]; 4320 min, single replicates",89.4163% and 95.3897% and 90.7133%
same,Relative percent drug loaded in DC Bead LUMI over time,"[2]; 8640 min, single replicates",89.5369% and 92.0678% and 86.7361%
same,loading behaviour,[2]; DC Bead LUMI,Fast loading
same,"Relative percent drug loaded (maximum, percent of SO3− available on a molar basis)","[2]; DC Bead LUMI, mean (n = 3)",95% and 94.66%
same,equivalent of drug loaded to sulfonated bead,"[2]; DC Bead LUMI, mean ± SD",0.27 ± 0.01 mM drug/ml beads
same,Maximum drug loaded,"[2]; DC Bead LUMI, mean ± SD, n = 3, base form except Dox (salt form)",65.28 ± 3.09 mg drug/ml beads
same,"Maximum drug loaded (Triplicate), %","[2]; DC Bead LUMI, single replicates",89.8821% and 98.7583% and 95.3273%
same,Drug: sulfonate,"[2]; molar ratio at maximum loading, DC Bead LUMI",0.946
same,Theoretical maximum loading level based on SO3− contents,"[2]; per mL DC Bead LUMI, assuming 1:1 drug to sulfonate",68.97 mg
same,release in saline from DC Bead LUMI after multiple washes in deionized water,[3]; 5 min,3.738 mg/mL of beads and 1.905 mg/mL of beads and 0.7403 mg/mL of beads
same,release in saline from DC Bead LUMI after multiple washes in deionized water,[3]; 15 min,4.599 mg/mL of beads and 2.598 mg/mL of beads and 1.25 mg/mL of beads
same,release in saline from DC Bead LUMI after multiple washes in deionized water,[3]; 30 min,6.014 mg/mL of beads and 2.518 mg/mL of beads and 1.755 mg/mL of beads
same,release in saline from DC Bead LUMI after multiple washes in deionized water,[3]; 45 min,5.636 mg/mL of beads and 3.25 mg/mL of beads and 2.648 mg/mL of beads
same,release in saline from DC Bead LUMI after multiple washes in deionized water,[3]; 60 min,6.005 mg/mL of beads and 3.196 mg/mL of beads and 2.336 mg/mL of beads
same,release in saline from DC Bead LUMI after multiple washes in deionized water,[3]; 120 min,7.034 mg/mL of beads and 4.188 mg/mL of beads and 2.86 mg/mL of beads
same,release in saline from DC Bead LUMI after multiple washes in deionized water,[3]; 180 min,9.042 mg/mL of beads and 4.426 mg/mL of beads and 3.116 mg/mL of beads
same,release in saline from DC Bead LUMI after multiple washes in deionized water,[3]; 240 min,8.512 mg/mL of beads and 4.6972 mg/mL of beads and 3.19 mg/mL of beads
same,release in saline from DC Bead LUMI after multiple washes in deionized water,[3]; 300 min,8.8991 mg/mL of beads and 4.841 mg/mL of beads and 3.452 mg/mL of beads
same,release in saline from DC Bead LUMI after multiple washes in deionized water,[3]; 360 min,9.596 mg/mL of beads and 5.306 mg/mL of beads and 3.529 mg/mL of beads
same,release in saline from DC Bead LUMI after multiple washes in deionized water,[3]; 420 min,9.49 mg/mL of beads and 5.808 mg/mL of beads and 4.0861 mg/mL of beads
same,release in saline from DC Bead LUMI after multiple washes in deionized water,[3]; 480 min,9.552 mg/mL of beads and 5.445 mg/mL of beads and 3.722 mg/mL of beads
same,release in saline from DC Bead LUMI after multiple washes in deionized water,[3]; 1440 min,10.8637 mg/mL of beads and 7.881 mg/mL of beads and 6.056 mg/mL of beads
same,release in saline from DC Bead LUMI after multiple washes in deionized water,[3]; 2880 min,12.3732 mg/mL of beads and 7.686 mg/mL of beads and 6.267 mg/mL of beads
same,release in saline from DC Bead LUMI after multiple washes in deionized water,[3]; 4320 min,15.5973 mg/mL of beads and 8.751 mg/mL of beads and 7.964 mg/mL of beads
same,release in saline from DC Bead LUMI after multiple washes in deionized water,[3]; 8640 min,14.5448 mg/mL of beads and 10.1106 mg/mL of beads and 7.947 mg/mL of beads
same,release behaviour in saline,[3]; DC Bead LUMI,rapid release
same,removal of drug from beads by repeated washing with deionized water,[4]; DC Bead LUMI,partially removed
same,aggregation of drug during washing / elution,"[4]; deionized water and saline, microscopy",Aggregation of IMQ was observed; also recorded: formed aggregates; also recorded: exhibited aggregation
